Results on 19 molecules are retold here after patent publication US9376442B2, “Methylpyrrolopyrimidinecarboxamides” (Takeda GmbH, priority 2009, dated 2016).

Some results are limits rather than exact numbers.

The target in this assay is T1, PDE5A1 (Homo sapiens, UniProt O76074).
T1 construct: from tissue; host or cells: human platelets from fresh donor blood (10,000 x g supernatant of sonicated lysate)
Kind of assay: Inhibition of type 5 phosphodiesterase (PDE5) activity, modified SPA test with human platelet lysate. In kind it is biochemical. The following applies: 0.5 μM cGMP, read-out: PDE5A1 inhibitory values [measured as −log IC50 (mol/l)] (converted). The protocol:
Method for Measuring Inhibition of the Type 5 Phosphodiesterase (PDE5) Activity:
As a source for human PDE5, platelets are used. For that purpose, 150 ml fresh blood from human donors anticoagulated with citrate [final concentration 0.3% (w/v)] is centrifuged at 200 g for 10 min to obtain the so-called platelet-rich-plasma (PRP) as a supernatant. 1/10 volume of ACD solution (85 mM Na3-citrate, 111 mM D-glucose, 71 mM citric acid, pH 4.4) is added to 9/10 volume of PRP. After centrifugation (1,400 g, 10 min) the cell pellet is resuspended in 3 ml homogenization buffer (NaCl 140 mM, KCl 3.8 mM, EGTA (ethylene glycol tetraacetic acid) 1 mM, MgCl2 1 mM, Tris-HCl 20 mM, beta-mercaptoethanol 1 mM, pH 8.2) plus protease-inhibitor mix giving rise to the final concentrations of 0.5 mM Pefablock (Roche), 10 μM Leupeptin, 5 μM Trypsininhibitor, 2 mM Benzamidin and 10 μM Pepstatin A. The suspension is sonified and thereafter centrifuged for 15 min at 10,000 g. The resulting supernatant (platelet lysate) is used for enzymatic testings.
PDE5A1 activity is inhibited by the compounds of the present subject matter in a modified SPA (scintillation proximity assay) test, supplied by Amersham Biosciences (see procedural instructions “phosphodiesterase [3H]cAMP SPA enzyme assay, code TRKQ 7090”), carried out in 96-well microtitre plates (MTP's). The test volume is 100 μl and contains 20 mM Tris buffer (pH 7.4), 0.1 mg of BSA (bovine serum albumin)/ml, 5 mM Mg^2+, 1 μM motapizone, 10 nM PDE2 inhibitor 2-(3,4-dimethoxybenzyl)-7-[(1R,2R)-2-hydroxy-1-(2-phenylethyl)propyl]-5-methylimidazo[5,1-f][1,2,4]triazin-4(3H)-one, 0.5 μM cGMP (cyclic guanosine monophosphate) (including about 50,000 cpm of [3H]cGMP as a tracer), 1 μl of the respective compound dilution in dimethylsulfoxide (DMSO) and sufficient PDE5-containing platelet lysat (10,000×g supernatant, see above) to ensure that 10-20 wt % of the cGMP is converted under the said experimental conditions. […] After a preincubation of 5 min at 37° C., the reaction is started by adding the substrate (cGMP) and the assay is incubated for a further 15 min; after that, it is stopped by adding SPA beads (50 μl). In accordance with the manufacturer's instructions, the SPA beads had previously been resuspended in water, but are then diluted 1:3 (v/v) in water; the diluted solution also contains 3 mM […] (IBMX) to ensure a complete PDE activity stop. After the beads have been sedimented (>30 min), the MTP's are analyzed in commercially available luminescence detection devices. The corresponding IC50 values of the compounds for the inhibition of PDE activity are determined from the concentration-effect curves by means of non-linear regression.
Regarding `CCC(=O)N1C[C@@H](O)[C@H](NC(=O)c2c(C)[nH]c3c(-c4cc(F)c(OC)cc4OCC4CC4)ncnc23)C1` (relative stereo) [Example E190, 4-[2-(Cyclopropylmethoxy)-5-fluoro-4-methoxyphenyl]-N-[(3R*,4R*)-4-hydroxy-1-propionylpyrrolidin-3-yl]-6-methyl-5H-pyrrolo[3,2-d]pyrimidine-7-carboxamide], the IC50 is less than 1 nM. To `CC(=O)N1CC[C@@H](NC(=O)c2c(C)[nH]c3c(-c4c(OCC5CC5)ccc5c4OCO5)ncnc23)C1` [Example E13, N-[(3R)-1-acetylpyrrolidin-3-yl]-4-[5-(cyclopropylmethoxy)-1,3-benzodioxol-4-yl]-6-methyl-5H-pyrrolo[3,2-d]pyrimidine-7-carboxamide] belongs less than 1 nM; to `COc1cc(-c2ncnc3c(C(=O)N[C@@H]4CCN(C(=O)CO)C[C@H]4O)c(C)[nH]c23)c(OCC2CC2)cc1F` (relative stereo) [Example F71, 4-[2-(Cyclopropylmethoxy)-4-fluoro-5-methoxyphenyl]-N-[(3R*,4R*)-1-glycoloyl-3-hydroxypiperidin-4-yl]-6-methyl-5H-pyrrolo[3,2-d]pyrimidine-7-carboxamide], less than 1 nM. To `CCC(=O)N1C[C@@H](O)[C@H](NC(=O)c2c(C)[nH]c3c(-c4cc(OC)c(F)cc4OCC4CC4)ncnc23)C1` (relative stereo) [Example E184, 4-[2-(Cyclopropylmethoxy)-4-fluoro-5-methoxyphenyl]-N-[(3R*,4R*)-4-hydroxy-1-propionylpyrrolidin-3-yl]-6-methyl-5H-pyrrolo[3,2-d]pyrimidine-7-carboxamide] belongs less than 1 nM; to `Cc1cc(-c2ncnc3c(C(=O)N[C@H]4CC[C@@H](NC(=O)[C@H](C)O)CC4)c(C)[nH]c23)c(OCC2CC2)cc1F` [Example F80, 4-[2-(Cyclopropylmethoxy)-4-fluoro-5-methylphenyl]-N-(cis-4-{[(2S)-2-hydroxypropanoyl]amino}cyclohexyl)-6-methyl-5H-pyrrolo[3,2-d]pyrimidine-7-carboxamide], less than 1 nM. Consider `CCC(=O)N[C@H]1CC[C@H](NC(=O)c2c(C)[nH]c3c(-c4cc(F)c(OC)cc4OCC4CC4)ncnc23)CC1` [Example E136, 4-[2-(Cyclopropylmethoxy)-5-fluoro-4-methoxyphenyl]-6-methyl-N-[trans-4-(propionylamino)cyclohexyl]-5H-pyrrolo[3,2-d]pyrimidine-7-carboxamide], for which the IC50 was less than 1 nM. To `COc1cc(OCC2CC2)c(-c2ncnc3c(C(=O)N[C@H]4CC[C@H](NC(=O)[C@H](C)O)CC4)c(C)[nH]c23)cc1F` [Example F86, 4-[2-(Cyclopropylmethoxy)-5-fluoro-4-methoxyphenyl]-N-(trans-4-{[(25)-2-hydroxypropanoyl]amino}cyclohexyl)-6-methyl-5H-pyrrolo[3,2-d]pyrimidine-7-carboxamide] belongs less than 1 nM. To `COc1ccc(-c2ncnc3c(C(=O)NC4CCN(C(=O)CO)CC4)c(C)[nH]c23)c(OCC2CC2)c1` [Example F34, 4-[2-(Cyclopropylmethoxy)-4-methoxyphenyl]-N-(1-glycoloylpiperidin-4-yl)-6-methyl-5H-pyrrolo[3,2-d]pyrimidine-7-carboxamide] belongs less than 1 nM. With `Cc1[nH]c2c(-c3c(OCC4CC4)ccc4c3OCO4)ncnc2c1C(=O)NC1CN(C(=O)C(C)O)CC1O` (mixture of isomers) [Example F10, Diastereomeric mixture of 4-[5-(Cyclopropylmethoxy)-1,3-benzodioxol-4-yl]-N-{(3R,4R)-4-hydroxy-1-[(2S)-2-hydroxypropanoyl]pyrrolidin-3-yl}-6-methyl-5H-pyrrolo[3,2-d]pyrimidine-7-carboxamide and 4-[5-(cyclopropylmethoxy)-1,3-benzodioxol-4-yl]N-{(3S,4S)-4-hydroxy-1-[(2S)-2-hydroxypropanoyl]pyrrolidin-3-yl}-6-methyl-5H-pyrrolo[3,2-d]pyrimidine-7-carboxamide], the IC50 was less than 1 nM. To `COc1cc(-c2nc(C)nc3c(C(=O)NC4CCN(C(=O)[C@H](C)O)CC4)c(C)[nH]c23)c(OCC2CC2)cc1F` [Example F110, 4-[2-(Cyclopropylmethoxy)-4-fluoro-5-methoxyphenyl]-N-{1-[(2S)-2-hydroxypropanoyl]piperidin-4-yl}-2,6-dimethyl-5H-pyrrolo[3,2-d]pyrimidine-7-carboxamide] belongs less than 1 nM; to `COc1cc(-c2ncnc3c(C(=O)N[C@H]4CN(C(=O)CO)CC[C@@H]4O)c(C)[nH]c23)c(OCC2CC2)cc1F` (relative stereo) [Example F73, 4-[2-(Cyclopropylmethoxy)-4-fluoro-5-methoxyphenyl]-N-[(3S*,4S*)-1-glycoloyl-4-hydroxypiperidin-3-yl]-6-methyl-5H-pyrrolo[3,2-d]pyrimidine-7-carboxamide], less than 1 nM. To `CCc1ccc(OCC2CC2)c(-c2ncnc3c(C(=O)NC4CCN(C(=O)[C@H](C)O)CC4)c(C)[nH]c23)c1` [Example F92, 4-[2-(Cyclopropylmethoxy)-5-ethylphenyl]-N-{1-[(2S)-2-hydroxypropanoyl]piperidin-4-yl}-6-methyl-5H-pyrrolo[3,2-d]pyrimidine-7-carboxamide] belongs less than 1 nM; to `COCC(=O)N1CC[C@@H](NC(=O)c2c(C)[nH]c3c(-c4cc(F)ccc4OCC4CC4)ncnc23)[C@H](O)C1` (relative stereo) [Example E51, 4-[2-(Cyclopropylmethoxy)-5-fluorophenyl]-N-[(3R*,4R*)-3-hydroxy-1-(methoxyacetyl)piperidin-4-yl]-6-methyl-5H-pyrrolo[3,2-d]pyrimidine-7-carboxamide], 1 to 10 nM; to `COCC(=O)N1C[C@@H](O)[C@H](NC(=O)c2c(C)[nH]c3c(-c4ccc(F)cc4OCC4CC4)ncnc23)C1` (relative stereo) [Example E33, 4-[2-(Cyclopropylmethoxy)-4-fluorophenyl]-N-[(3R*,4R*)-4-hydroxy-1-(methoxyacetyl)pyrrolidin-3-yl]-6-methyl-5H-pyrrolo[3,2-d]pyrimidine-7-carboxamide], 1 to 10 nM.

As for `CCC(=O)N1CC[C@@H](NC(=O)c2c(C)[nH]c3c(-c4cc(F)ccc4OCC4CC4)ncnc23)C1` [Example E47, 4-[2-(Cyclopropylmethoxy)-5-fluorophenyl]-6-methyl-N-[(3R)-1-propanoylpyrrolidin-3-yl]-5H-pyrrolo[3,2-d]pyrimidine-7-carboxamide], the IC50 was 1 to 10 nM.

Regarding `COCC(=O)N1CC[C@@H](NC(=O)c2c(C)[nH]c3c(-c4cc(F)c(OC)cc4OCC4CC4)ncnc23)[C@H](O)C1` (relative stereo) [Example E144, 4-[2-(Cyclopropylmethoxy)-5-fluoro-4-methoxyphenyl]-N-[(3R*,4R*)-3-hydroxy-1-(methoxyacetyl)piperidin-4-yl]-6-methyl-5H-pyrrolo[3,2-d]pyrimidine-7-carboxamide], the IC50 is less than 1 nM. In the case of `CCOc1ccc(F)cc1-c1ncnc2c(C(=O)NC3CCN(C(C)=O)CC3)c(C)[nH]c12` [Example E52, N-(1-acetylpiperidin-4-yl)-4-(2-ethoxy-5-fluorophenyl)-6-methyl-5H-pyrrolo[3,2-d]pyrimidine-7-carboxamide], the IC50 was 1 to 10 nM. `CCOc1ccc(C(F)(F)F)cc1-c1ncnc2c(C(=O)NC3CCN(C(C)=O)CC3)c(C)[nH]c12` [Example E99, N-(1-acetylpiperidin-4-yl)-4-[2-ethoxy-5-(trifluoromethyl)phenyl]-6-methyl-5H-pyrrolo[3,2-d]pyrimidine-7-carboxamide]: the IC50 is less than 1 nM. `CCC(=O)N[C@H]1CC[C@@H](NC(=O)c2c(C)[nH]c3c(-c4cc(OC)c(F)cc4OCC4CC4)ncnc23)CC1` [Example E111, 4-[2-(Cyclopropylmethoxy)-4-fluoro-5-methoxyphenyl]-6-methyl-N-[cis-4-(propionylamino)cyclohexyl]-5H-pyrrolo[3,2-d]pyrimidine-7-carboxamide]: the IC50 is less than 1 nM.
